Like-named read-outs stand apart in the source and are kept apart here.
Tests used:
[1] = test system: DU145; test: MTT assay, antiproliferative effect on DU145; format: cell-based; conditions: Homo sapiens
Protocol: (§1) Human CRC (HCT116 and HT-29) and PCa (DU145 and PC3) cell lines were purchased from the American Type Culture Collection (ATCC—LGC Standards, Molsheim, France). All cells were grown in RPMI 1640 medium supplemented with 10% FBS, 1% L-glutamine, 100 U/mL penicillin, and 100 μg/mL streptomycin. Cultures were maintained in a humidified atmosphere containing 5% CO2 at 37 °C. Cells were seeded in 75 cm^2 culture flasks at 1.2 × 10^4 cells/cm^2 for HCT116, DU145, and PC3 cells, and 2.0 × 10^4 for HT-29 cells. Cells were grown for 24 h in culture medium prior to exposure or not to obtain the synthesized compounds. Stock solutions (10^−2 M in DMSO) of each compound were diluted in culture medium to obtain appropriate final concentrations.
(§2) • (a) MTT assay: The antiproliferative effect of all compounds was determined using MTT assay (a metabolic activity test). Briefly, cells were seeded in 96-well culture plates at 4 × 10^3 cells/well for HCT116, PC3, and DU145 cells and 6 × 10^3 cells/well for HT-29 cells (100 µL/well), and grown for 24 h in culture medium prior to exposure or not to obtain compounds 1–15 with concentrations ranging from 5 nM to 50 μM. After 24 and 48 h of treatment, MTT (5 mg/mL in PBS) was added and incubated for another 3 h. MTT was then removed from the wells before adding 100 μL/well of DMSO. The optical density was detected with a microplate reader (Multiskan FC, Thermoscientific, Bordeaux, France) at 550 nm and cell viability was expressed as a percentage of each treatment condition compared to control cells. IC50 values were calculated for all compounds from the dose–response curve. Data are expressed as the arithmetic means ± standard error of the mean (SEM) of separate experiments. All experiments were performed at least in triplicate. • (b) Trypan blue dye exclusion method: Cells were grown for 24 h then treated with compounds 10 and 13 at indicated concentrations. After 48 h of treatment, cells were trypsinized and resuspended in complete medium. Each sample was mixed with Trypan blue solution (0.14% in HBSS, Invitrogen-GIBCO, ThermoFisher, Illkirch, France). Colored (non-viable) and dye-excluding (viable) cells were counted with the LUNA-II automated cell Counter (Logos Biosystems; MC2, Aubière, France). The control was normalized to 100% including viable and dead cells. The results indicated on the histograms were expressed as the percentage of cells compared to the control. IC50 values were determined from the percentages of viable cells compared to the control.

[2] = test system: human PCa (DU145 and PC3) cell lines; test: MTT assay, summary statements for PCa cells; format: cell-based; conditions: Homo sapiens, DU-145, DU145 and PC3, text summary; read-out: IC50 towards PCa cells
Protocol: as §1, §2

[3] = DU-145, 24 h, read-out: IC50 DU145 24 h
[4] = DU-145, 48 h, read-out: IC50 DU145 48 h

IC50 [1, 3] | IC50 [1, 4] | IC50 [2] | SMILES
51 ± 6 nM | 20 ± 2 nM | 17 to 31 nM | COc1cc(C(=O)/C=C/c2c[nH]c3ccccc23)cc(OC)c1OC [chalcone 10, (E)-3-(1H-indol-3-yl)-1-(3,4,5-trimethoxyphenyl)prop-2-en-1-one]
3920 ± 240 nM | 3310 ± 90 nM | – | COc1cc(C(=O)/C=C/c2coc3ccc(C)cc3c2=O)cc(OC)c1OC [chalcone 13, (E)-6-methyl-3-(3-oxo-3-(3,4,5-trimethoxyphenyl)prop-1-en-1-yl)-4H-chromen-4-one]
